Reference: patent US20250368872A1, “PROTEIN CROSSLINKING AGENT” (CANON KABUSHIKI KAISHA, priority 2023, published 2025)

Test system: silk fibroin powder
Test: Evaluation of adsorptivity of groups containing aromatic rings to proteins having a β-sheet structure
Type: binding
Conditions: for Adsorption rate to fibroin (%): 0.02 mM, 0.15 mL methanol solution on 10 mg silk fibroin powder, air-dried, 0.15 mL water, stirred 5 minutes, supernatant absorbance; for Adsorptivity: class of adsorption rate to fibroin
Description: After distillation of methanol by air-drying, 0.15 mL of water was added. After stirring for 5 minutes, the supernatant was collected. The concentration of groups containing aromatic rings in the collected supernatant liquid and the percentage of adsorption of groups containing aromatic rings to fibroin were calculated by absorbance measurement, and the adsorptivity of groups containing aromatic rings to proteins having a β-sheet structure was evaluated by the following criteria.
“Evaluation A” and “Evaluation B” indicate the level at which groups containing aromatic rings adsorb strongly to proteins having a β-sheet structure, and “Evaluation C” indicates the low adsorptivity of groups containing aromatic rings.
• A: 90% or more • B: 60% or more but less than 90% • C: Less than 60%

Molecule	Adsorption rate to fibroin (%)	Adsorptivity
O=C(O)CCOc1ccccc1-c1nc2ccccc2s1 [Compound 4]	71%	B (60% or more but less than 90%)
O=C(O)CCNc1ccc(-c2nc3ccccc3s2)cc1 [Compound 2]	79%	B (60% or more but less than 90%)
Thioflavin T acid [reference compound]	91%	A (90% or more)
